Data as given in paper PMC7018803, “A randomized, placebo-controlled, phase 1 study to evaluate the effects of TAK-063 on ketamine-induced changes in fMRI BOLD signal in healthy subjects” (Psychopharmacology, 2019).

Experiments:
[1] = system: healthy male subjects; test: Resting state fMRI BOLD signal before ketamine infusion; assay type: in vivo, human; details: 3-30 mg
Description: Subjects checked in on day − 1 of each treatment period during which vital signs, electrocardiogram (ECG), and laboratory safety tests were repeated. On day 1 of each treatment period, subjects received a 3-, 10-, or 30-mg TAK-063 dose or placebo tablets. Participants then relaxed, slept, or watched movies while remaining in the research environment. Ketamine (0.12 mg/kg intravenous bolus over 60 s followed by a continuous infusion of 0.31 mg/kg/h over approximately 150 min) was administered 4 h after TAK-063 or placebo (Fig. 1). This ketamine dose was based on a previous study that achieved steady-state concentrations of 75 ng/mL and provided a robust BOLD signal with minimal psychotomimetic symptoms (De Simoni et al. [2013]).
The scanning protocol for the current study was very comprehensive and included multiple MR approaches. This publication reports the BOLD fMRI data for the working memory task, but also resting state fMRI. The magnetic scanning portion of the neuroimaging test battery was initiated 20 min before ketamine dosing. Imaging was performed using a 3 Tesla Siemens Trio scanner. The MR scanning protocol was initiated 20 min before ketamine dosing; prior to scanning, a structural magnetization prepared rapid gradient echo (MPRAGE) scan was collected. […]

[2] = Pharmacokinetics of TAK-063 in plasma after single oral dose; assay type: in vivo, human
[3] = system: rats; parameters: method as in Suzuki et al. [2016]; details: ref Suzuki et al. [2016]; cited from earlier work
[4] = system: rodent models of cognitive impairment; parameters: method as in Shiraishi et al. [2016]; details: ref Shiraishi et al. [2016]; cited from earlier work
[5] = system: individuals with schizophrenia; parameters: method as in Macek et al. [2017]; details: 20 mg; 6-week phase 2 study; ref Macek et al. [2017]; cited from earlier work
[6] = system: phosphodiesterase 10A (PDE10A); parameters: method as in Seeger et al. [2003]; Suzuki et al. [2015]; details: ref Seeger et al. [2003]; Suzuki et al. [2015]; cited from earlier work
[7] = system: patients with schizophrenia; details: cited from earlier work

In the case of `COc1cn(-c2ccc(-n3cccn3)cc2F)nc(-c2ccnn2-c2ccccc2)c1=O` [TAK-063], the “effects on fMRI BOLD signal during the resting state before ketamine infusion” value [1] is reported as “region-specific effects”, the “Dose proportionality of Cmax and AUC” value ([2]; dose range 3-30 mg) is reported as “close to dose proportional increase in exposure” and the median tmax ([2]; single oral dose, plasma, 3-30 mg) is reported as 3 h. For the same compound, the “MK-801-induced effects on hyperactivity” value [3] was “reversed”, the “MK-801 and phencyclidine-induced effects on spatial working memory, attentional set-shifting, and executive function” value [4] was “reversed” and the “change from baseline in PANSS score at week 6 vs placebo (primary endpoint)” value [5] was “did not meet its primary endpoint”. The PDE10A inhibition [6] was “selective inhibitor”, the “safety and tolerability in clinical studies” value ([7]; ref Goldsmith et al. [2017], Tsai et al. [2016]) was “safe and well tolerated” and the “effects in patients with schizophrenia” value ([7]; ref Macek et al. [2016a], [b]) was “increases in electroencephalogram (EEG) gamma power, improvements in mismatch negativity, and some improvements in cognition”.
